Test results: the CheMixHub drug solubility set

Assay: xn = mol fraction of the nth substance listed, in the solute-free solvent

Cc1[nH]c(=O)c(C#N)cc1-c1ccncc1 + CN(C)C=O + O
solubility (g/100 g solution)
Conditions | 278.15 K | 283.15 K | 288.15 K | 293.15 K | 298.15 K | 303.15 K | 308.15 K | 313.15 K | 318.15 K | 323.15 K
x2 = 0.02666 | 0.00219 | 0.00258 | 0.00301 | 0.00349 | 0.00402 | 0.00455 | 0.00511 | 0.00573 | 0.0064 | 0.00714
x2 = 0.05806 | 0.00523 | 0.00608 | 0.00705 | 0.00812 | 0.00928 | 0.0104 | 0.0117 | 0.013 | 0.0144 | 0.016
x2 = 0.09556 | 0.00909 | 0.0105 | 0.0121 | 0.014 | 0.0159 | 0.0179 | 0.02 | 0.0222 | 0.0245 | 0.0271
x2 = 0.1412 | 0.0128 | 0.0148 | 0.0171 | 0.0197 | 0.0224 | 0.0253 | 0.0283 | 0.0314 | 0.0347 | 0.0384
x2 = 0.1978 | 0.0159 | 0.0184 | 0.0208 | 0.0242 | 0.028 | 0.0318 | 0.0357 | 0.0397 | 0.0439 | 0.0488
x2 = 0.27 | 0.0186 | 0.0214 | 0.0246 | 0.029 | 0.0328 | 0.0371 | 0.0419 | 0.047 | 0.0524 | 0.0585
x2 = 0.3652 | 0.0209 | 0.0244 | 0.028 | 0.0328 | 0.0376 | 0.043 | 0.0487 | 0.0547 | 0.0613 | 0.068
x2 = 0.4965 | 0.023 | 0.0268 | 0.0315 | 0.0364 | 0.0416 | 0.0476 | 0.0545 | 0.0615 | 0.0685 | 0.0771
x2 = 0.6893 | 0.0242 | 0.0285 | 0.033 | 0.0391 | 0.0448 | 0.0505 | 0.0577 | 0.0654 | 0.0732 | 0.0835

Cc1[nH]c(=O)c(C#N)cc1-c1ccncc1 + CC(C)O + O
solubility (g/100 g solution)
Conditions | 278.15 K | 283.15 K | 288.15 K | 293.15 K | 298.15 K | 303.15 K | 308.15 K | 313.15 K | 318.15 K | 323.15 K
x2 = 0.03225 | 0.00105 | 0.00126 | 0.00148 | 0.00173 | 0.00202 | 0.00231 | 0.00261 | 0.00296 | 0.00333 | 0.00376
x2 = 0.06974 | 0.00174 | 0.00206 | 0.00243 | 0.00283 | 0.0033 | 0.00374 | 0.00423 | 0.00479 | 0.00537 | 0.00604
x2 = 0.1139 | 0.00266 | 0.00311 | 0.00366 | 0.00429 | 0.00498 | 0.00565 | 0.00635 | 0.00712 | 0.00801 | 0.00906
x2 = 0.1666 | 0.00378 | 0.00445 | 0.00523 | 0.00608 | 0.00705 | 0.00798 | 0.009 | 0.0102 | 0.0114 | 0.0128
x2 = 0.2307 | 0.00502 | 0.00587 | 0.00684 | 0.00797 | 0.00927 | 0.0105 | 0.0119 | 0.0135 | 0.0151 | 0.017
x2 = 0.3103 | 0.00629 | 0.00741 | 0.00871 | 0.0101 | 0.0118 | 0.0133 | 0.015 | 0.0171 | 0.019 | 0.0214
x2 = 0.4117 | 0.00743 | 0.00875 | 0.0102 | 0.0119 | 0.0137 | 0.0155 | 0.0178 | 0.02 | 0.0224 | 0.0256
x2 = 0.5454 | 0.0083 | 0.00978 | 0.0115 | 0.0135 | 0.0155 | 0.0177 | 0.02 | 0.0226 | 0.0256 | 0.0291
x2 = 0.7297 | 0.00873 | 0.0102 | 0.012 | 0.0141 | 0.0163 | 0.0188 | 0.0214 | 0.0243 | 0.0274 | 0.0314

Nc1cccc(S(=O)(=O)c2cccc(N)c2)c1 + CN(C)C=O + O
solubility (g/100 g solution)
Conditions | 283.15 K | 288.15 K | 293.15 K | 298.15 K | 303.15 K | 308.15 K | 313.15 K | 318.15 K | 323.15 K | 328.15 K
x2 = 0.02666 | 0.202 | 0.267 | 0.355 | 0.463 | 0.615 | 0.787 | 1.01 | 1.26 | 1.53 | 1.97
x2 = 0.05806 | 0.784 | 1.03 | 1.32 | 1.65 | 2.08 | 2.63 | 3.23 | 3.98 | 4.79 | 5.92
x2 = 0.09556 | 2.09 | 2.63 | 3.21 | 3.95 | 4.75 | 5.77 | 6.85 | 8.08 | 9.45 | 11
x2 = 0.1412 | 4.93 | 5.86 | 6.87 | 8.09 | 9.39 | 10.8 | 12.4 | 14.1 | 15.9 | 17.7
x2 = 0.1978 | 7.85 | 9.25 | 10.8 | 12.5 | 14.2 | 16.2 | 18.4 | 20.5 | 22.9 | 25.4
x2 = 0.27 | 11.4 | 13 | 15 | 16.9 | 19.1 | 21.5 | 23.9 | 26.7 | 29.3 | 32.1
x2 = 0.3652 | 14.4 | 16.6 | 18.8 | 21.2 | 23.6 | 26.3 | 29.1 | 31.9 | 34.6 | 37.4
x2 = 0.4965 | 17.8 | 20.1 | 22.5 | 25.2 | 27.8 | 30.7 | 33.8 | 36.6 | 39.7 | 42.6
x2 = 0.6893 | 20.8 | 23.1 | 25.7 | 28.2 | 31.1 | 33.9 | 36.5 | 39.4 | 42.3 | 45.4

CCC(C)n1ncn(-c2ccc(N3CCN(c4ccc(OCC5COC(Cn6cncn6)(c6ccc(Cl)cc6Cl)O5)cc4)CC3)cc2)c1=O (stereo not given) + ClC(Cl)Cl + CCO
solubility (g/100 g solution)
Conditions | x2 = 0.04158 | x2 = 0.08894 | x2 = 0.1434 | x2 = 0.2065 | x2 = 0.2808 | x2 = 0.3694 | x2 = 0.4767 | x2 = 0.6097 | x2 = 0.7785
288.15 K | 0.0692 | 0.133 | 0.268 | 0.494 | 1.05 | 3.89 | 10.7 | 19.4 | 26.1
293.15 K | 0.0835 | 0.16 | 0.32 | 0.565 | 1.38 | 4.82 | 12 | 20.6 | 26.9
298.15 K | 0.0993 | 0.189 | 0.375 | 0.644 | 1.77 | 6 | 13.4 | 21.8 | 27.8
303.15 K | 0.117 | 0.225 | 0.442 | 0.733 | 2.24 | 7.3 | 14.8 | 23 | 28.7
308.15 K | 0.138 | 0.267 | 0.516 | 0.832 | 2.82 | 8.83 | 16.4 | 24.2 | 29.5

O=C(O)CC(O)C(=O)O (stereo not given) + C1CCOC1 + CCOC(C)=O
solubility (g/100 g solution)
Conditions | 278.15 K | 283.15 K | 288.15 K | 293.15 K | 298.15 K | 303.15 K | 308.15 K | 313.15 K | 318.15 K | 323.15 K
x2 = 0.234 | 9.32 | 10.1 | 11 | 12 | 13.2 | 14.4 | 15.8 | 17.2 | 18.6 | 20.4
x2 = 0.3437 | 13.6 | 14.7 | 15.9 | 17.2 | 18.7 | 20.4 | 22.1 | 24 | 26.1 | 28.7
x2 = 0.4489 | 19.3 | 20.5 | 21.8 | 23.2 | 24.7 | 26.3 | 27.9 | 29.9 | 31.9 | 34.2
x2 = 0.55 | 24.6 | 26 | 27.6 | 29 | 30.8 | 32.7 | 34.6 | 36.6 | 39.2 | 41.8
x2 = 0.647 | 27.6 | 28.9 | 30.5 | 32.2 | 34.2 | 36.3 | 38.4 | 40.8 | 43.5 | 46.4
x2 = 0.7403 | 30.1 | 31.8 | 33.3 | 34.9 | 36.9 | 38.8 | 40.9 | 43.3 | 46 | 48.7
x2 = 0.8302 | 34.8 | 36 | 37.7 | 39 | 40.7 | 42.6 | 44.4 | 46.4 | 48.7 | 51.4
